Measured values: ChEMBL document CHEMBL3351940, “Antioxidant effects of the highly-substituted carbazole alkaloids and their related carbazoles” (Bioorg Med Chem Lett, 2014)

How the values were obtained:
[1] = Cytotoxicity against human HCT116 cells assessed as reduction cell viability at 100 uM after 48 hrs by MTT assay; format: cell-based; conditions: hct-116, 48 h
[2] = Antioxidant activity assessed as DPPH radical scavenging capacity after 30 mins by UV spectrophotometry; format: physicochemical
[3] = Antioxidant activity assessed as ABTS+ radical scavenging capacity after 16 hrs by UV spectrophotometry; format: physicochemical
[4] = Antioxidant activity assessed as reduction of Cu2+ to Cu+ after 3 mins by PAO-SO method; format: physicochemical; conditions: 0.05 h

Row | IC50 [2] [µM] | IC50 [3] [µM] | Activity [4] | SMILES | Activity [1]
1 | 9.9 | 112 | 3567 µmol/L | C/C(=C\c1c(C)c(O)cc2c1[nH]c1c(O)ccc(CO)c12)CCC(C)C | Non-toxic
2 | 7.6 | 57.1 | 4580 µmol/L | CC[C@H](C)CC/C(C)=C/c1c(C)c(O)cc2c1[nH]c1c(O)ccc(C=O)c12 | Non-toxic
3 | 9.8 | 116 | 3413 µmol/L | CC[C@H](C)CC/C(C)=C/c1c(C)c(O)cc2c1[nH]c1c(O)ccc(CO)c12 | Non-toxic
4 | 12 | 175 | 2411 µmol/L | CC(C)=CCc1ccc2[nH]c3c(CC(C)O)c(C)c(O)cc3c2c1 (centres undefined) | Toxic
5 | 7.1 | 52.6 | 4584 µmol/L | C/C(=C\c1c(C)c(O)cc2c1[nH]c1c(O)ccc(C=O)c12)CCC(C)C | Non-toxic

The remaining lines, values behind:

Row | SMILES | IC50 [2] [µM] | IC50 [3] [µM] | Activity [4] | Activity [1]
6 | CCCOC(=O)c1cc(O)c(O)c(O)c1 [PROPYL GALLATE] | 6.1 | 188 | 3096 µmol/L | Non-toxic
7 | CCCCCCCc1c(C)c(O)cc2c1[nH]c1ccccc12 | 12 | 159 | 2803 µmol/L | Non-toxic
8 | Cc1c(C)c2c(c(C)c1O)CC[C@@](C)(CCC[C@H](C)CCC[C@H](C)CCCC(C)C)O2 [ALPHA-TOCOPHEROL] | 15.4 | 211 | Active | Non-toxic
9 | Cc1c(O)cc2c([nH]c3ccccc32)c1CC(C)O (centres undefined) | 12 | 161 | 2881 µmol/L | Non-toxic
10 | CC1=NN(c2ccccc2)C(=O)C1 [EDARAVONE] | 19.7 | 214 | 3096 µmol/L | Non-toxic
11 | CC(C)=CCc1ccc2[nH]c3c(c2c1)C(=O)C(=O)C(C)=C3CC(C)O (centres undefined) | > 50 | > 500 | 1182 µmol/L | Toxic
